Assay results as given in ChEMBL document CHEMBL1201862, “PubChem BioAssay data set” (2004).
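Briefly, cells in 96-well plates were exposed to five compound concentrations for 48 h, and endpoints were estimated by linear interpolation. Here, GI50 denotes the concentration required for 50% inhibition of growth.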 Active and inactive are the calls of the source. No stated cut-off is given here; in the data, active = GI50 up to about 1.1 µM and inactive = higher.

How the values were obtained:
Experiment in all cases: DTP human tumour cell line panel, 48 h
KM-20L2 = system: KM-20L2
SN12C = system: SN12C
TK-10 = system: TK-10
KM12 = system: KM12
A549 = system: A549
DLD-1 = system: DLD-1
M14 = system: M14
IGROV-1 = system: IGROV-1
RXF 393 = system: RXF 393
M19-MEL = system: M19-MEL
Malme-3M = system: Malme-3M
HCT-116 = system: HCT-116
ACHN = system: ACHN
HOP-92 = system: HOP-92
XF498 = system: XF498
RXF 631 = system: RXF 631
UACC-62 = system: UACC-62
UO-31 = system: UO-31
SNB-78 = system: SNB-78
HCC 2998 = system: HCC 2998
OVCAR-4 = system: OVCAR-4
SK-MEL-5 = system: SK-MEL-5
OVCAR-5 = system: OVCAR-5
SNB-75 = system: SNB-75
MOLT-4 = system: MOLT-4
OVCAR-8 = system: OVCAR-8
SK-MEL-2 = system: SK-MEL-2
U-251 = system: U-251
SF-268 = system: SF-268
LOX IMVI = system: LOX IMVI
LXFL 529 = system: LXFL 529
NCI-H226 = system: NCI-H226
HOP-18 = system: HOP-18
RPMI-8226 = system: RPMI-8226
NCI-H460 = system: NCI-H460
HT-29 = system: HT-29
SW-620 = system: SW-620
COLO 205 = system: COLO 205
UACC-257 = system: UACC-257
SF-295 = system: SF-295
HOP-62 = system: HOP-62
OVCAR-3 = system: OVCAR-3
HL-60 = system: HL-60
SK-MEL-28 = system: SK-MEL-28
SNB-19 = system: SNB-19
EKVX = system: EKVX
CCRF-CEM = system: CCRF-CEM
NCI-H23 = system: NCI-H23
786-0 = system: 786-0
NCI-H522 = system: NCI-H522
A498 = system: A498
DMS-114 = system: DMS-114
HCT-15 = system: HCT-15
SR = system: SR
SF-539 = system: SF-539
CAKI-1 = system: CAKI-1
K562 = system: K562
SK-OV-3 = system: SK-OV-3

SMILES: CCCCCC/C(CC(=O)CCC(=O)NCCc1ccccc1)=N\NC(=O)c1ccc2ccccc2c1O
- GI50 (KM-20L2): 35.1 µM (inactive)
- GI50 (SN12C): 49.5 µM (inactive)
- GI50 (TK-10): 64.7 µM (inactive)
- GI50 (KM12): 35.1 µM (inactive)
- GI50 (A549): 48.2 µM (inactive)
- GI50 (DLD-1): 36.9 µM (inactive)
- GI50 (M14): 33.3 µM (inactive)
- GI50 (IGROV-1): 33.7 µM (inactive)
- GI50 (RXF 393): 50.4 µM (inactive)
- GI50 (M19-MEL): 23.3 µM (inactive)
- GI50 (Malme-3M): 42.4 µM (inactive)
- GI50 (HCT-116): 29.9 µM (inactive)
- GI50 (ACHN): 28.2 µM (inactive)
- GI50 (HOP-92): 33 µM (inactive)
- GI50 (XF498): 63 µM (inactive)
- GI50 (RXF 631): 61.2 µM (inactive)
- GI50 (UACC-62): 22 µM (inactive)
- GI50 (UO-31): 35.4 µM (inactive)
- GI50 (SNB-78): 67.3 µM (inactive)
- GI50 (HCC 2998): 53.3 µM (inactive)
- GI50 (OVCAR-4): 37.8 µM (inactive)
- GI50 (SK-MEL-5): 29.5 µM (inactive)
- GI50 (OVCAR-5): 21.5 µM (inactive)
- GI50 (SNB-75): 78.5 µM (inactive)
- GI50 (MOLT-4): 11.5 µM (inactive)
- GI50 (OVCAR-8): 29.4 µM (inactive)
- GI50 (SK-MEL-2): 20 µM (inactive)
- GI50 (U-251): 37.9 µM (inactive)
- GI50 (SF-268): 22.6 µM (inactive)
- GI50 (LOX IMVI): 17.7 µM (inactive)
- GI50 (LXFL 529): 42.1 µM (inactive)
- GI50 (NCI-H226): 55 µM (inactive)
- GI50 (HOP-18): 12.1 µM (inactive)
- GI50 (RPMI-8226): 46 µM (inactive)
- GI50 (NCI-H460): 36.5 µM (inactive)
- GI50 (HT-29): 55.3 µM (inactive)
- GI50 (SW-620): 52.7 µM (inactive)
- GI50 (COLO 205): 54.2 µM (inactive)
- GI50 (UACC-257): 30.1 µM (inactive)
- GI50 (SF-295): 48 µM (inactive)
- GI50 (HOP-62): 36.7 µM (inactive)
- GI50 (OVCAR-3): 28.8 µM (inactive)
- GI50 (HL-60): 7.78 µM (inactive)
- GI50 (SK-MEL-28): 45.9 µM (inactive)
- GI50 (SNB-19): 59.8 µM (inactive)
- GI50 (EKVX): 43.2 µM (inactive)
- GI50 (CCRF-CEM): 10.3 µM (inactive)
- GI50 (NCI-H23): 31.6 µM (inactive)
- GI50 (786-0): 31.6 µM (inactive)

SMILES: CCOC(=O)/C(=C/c1ccc(C#N)cc1)N(CC)CC
- GI50 (SN12C): > 100 µM (inactive)
- GI50 (TK-10): > 100 µM (inactive)
- GI50 (KM12): > 100 µM (inactive)
- GI50 (A549): > 100 µM (inactive)
- GI50 (DLD-1): > 100 µM (inactive)
- GI50 (M14): > 100 µM (inactive)
- GI50 (IGROV-1): > 100 µM (inactive)
- GI50 (NCI-H522): > 100 µM (inactive)
- GI50 (M19-MEL): > 100 µM (inactive)
- GI50 (A498): > 100 µM (inactive)
- GI50 (Malme-3M): > 100 µM (inactive)
- GI50 (HCT-116): > 100 µM (inactive)
- GI50 (ACHN): > 100 µM (inactive)
- GI50 (HOP-92): > 100 µM (inactive)
- GI50 (XF498): > 100 µM (inactive)
- GI50 (RXF 631): > 100 µM (inactive)
- GI50 (UACC-62): > 100 µM (inactive)
- GI50 (DMS-114): > 100 µM (inactive)
- GI50 (UO-31): > 100 µM (inactive)
- GI50 (SNB-78): > 100 µM (inactive)
- GI50 (HCC 2998): > 100 µM (inactive)
- GI50 (OVCAR-4): > 100 µM (inactive)
- GI50 (SK-MEL-5): > 100 µM (inactive)
- GI50 (OVCAR-5): > 100 µM (inactive)
- GI50 (SNB-75): > 100 µM (inactive)
- GI50 (MOLT-4): > 100 µM (inactive)
- GI50 (OVCAR-8): > 100 µM (inactive)
- GI50 (HCT-15): > 100 µM
- GI50 (SK-MEL-2): > 100 µM (inactive)
- GI50 (U-251): > 100 µM (inactive)
- GI50 (SF-268): > 100 µM (inactive)
- GI50 (LOX IMVI): > 100 µM (inactive)
- GI50 (LXFL 529): > 100 µM (inactive)
- GI50 (NCI-H226): > 100 µM (inactive)
- GI50 (HOP-18): 63 µM (inactive)
- GI50 (RPMI-8226): > 100 µM (inactive)
- GI50 (NCI-H460): > 100 µM (inactive)
- GI50 (HT-29): > 100 µM (inactive)
- GI50 (SR): > 100 µM (inactive)
- GI50 (SF-539): > 100 µM (inactive)
- GI50 (SW-620): > 100 µM (inactive)
- GI50 (CAKI-1): > 100 µM (inactive)
- GI50 (COLO 205): > 100 µM (inactive)
- GI50 (UACC-257): > 100 µM (inactive)
- GI50 (SF-295): 1.88 µM (inactive)
- GI50 (HOP-62): > 100 µM (inactive)
- GI50 (HL-60): > 100 µM (inactive)
- GI50 (SK-MEL-28): > 100 µM (inactive)
- GI50 (EKVX): > 100 µM (inactive)
- GI50 (K562): > 100 µM (inactive)
- GI50 (CCRF-CEM): > 100 µM (inactive)
- GI50 (SK-OV-3): > 100 µM (inactive)
- GI50 (NCI-H23): > 100 µM (inactive)
- GI50 (786-0): > 100 µM (inactive)
